Laboratory results: US20080280937A1, “Ligand Conjugates of Vinca Alkaloids, Analogs, and Derivatives” (priority 2005, published 2008)
Entries after “also recorded” stand apart in the source; their conditions may differ.

Key:
[1] = target: T1, folate receptors (FRs) (Homo sapiens, UniProt P15328); assay: Relative Affinity Assay (displacement of 3H-folic acid on FR-positive KB cells); assay type: binding
T1 construct: FR-positive KB cells were heavily seeded into 24-well cell culture plates; endogenous in cells; host or cells: KB cells
T1 sequence (P15328 25-234): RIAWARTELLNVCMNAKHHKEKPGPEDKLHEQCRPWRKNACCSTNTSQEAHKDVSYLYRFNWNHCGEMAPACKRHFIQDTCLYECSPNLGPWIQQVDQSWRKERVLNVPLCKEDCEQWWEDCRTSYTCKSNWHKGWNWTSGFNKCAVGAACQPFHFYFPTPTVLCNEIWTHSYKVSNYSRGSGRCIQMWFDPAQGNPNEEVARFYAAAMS
Protocol: Relative Affinity Assay. The affinity of the compounds described herein for folate receptors (FRs) relative to folate was determined according to a previously described method (Westerhof, G. R., J. H. Schornagel, et al. (1995) Mol. Pharm. 48: 459-471) with slight modification. Briefly, FR-positive KB cells were heavily seeded into 24-well cell culture plates and allowed to adhere to the plastic for 18 h. Spent incubation media was replaced in designated wells with folate-free RPMI (FFRPMI) supplemented with 100 nM ^3H-folic acid in the absence and presence of increasing concentrations of test article or folic acid. Cells were incubated for 60 min at 37° C. and then rinsed 3 times with PBS, pH 7.4, followed by the addition of 500 μL of 1% SDS in PBS, pH 7.4. Cell lysates were then collected and added to individual vials containing 5 mL of scintillation cocktail, and then counted for radioactivity. Negative control tubes contained only the ^3H-folic acid in FFRPMI (no competitor). Positive control tubes contained a final concentration of 1 mM folic acid, and CPMs measured in these samples (representing non-specific binding of label) were subtracted from all samples.

[2] = system: folate receptor-positive KB cells; assay type: cell-based, human
Protocol: Inhibition of Cellular DNA Synthesis. The compounds described herein were evaluated using an in vitro cytotoxicity assay that predicts the ability of the drug to inhibit the growth of folate receptor-positive KB cells. The compounds were comprised of folate linked to a respective chemotherapeutic drug, as prepared according to the protocols described herein. The KB cells were exposed for predetermined periods of time at 37° C. to the indicated concentrations of folate-drug conjugate in the absence or presence of at least a 100-fold excess of folic acid. The cells were then rinsed with fresh culture medium and incubated in fresh culture medium for 72 hours at 37° C. Cell viability was assessed using a ^3H-thymidine incorporation assay.

[3] = system: M109 tumors; assay: Inhibition of Tumor Growth in Mice, subcutaneous M109 tumors; assay type: in vivo; conditions: Balb/c mice
Protocol: Inhibition of Tumor Growth in Mice. The anti-tumor activity of the compounds described herein, when administered intravenously (i.v.) to tumor-bearing animals, was evaluated in Balb/c mice bearing subcutaneous M109 tumors. Approximately 11 days post tumor inoculation in the subcutis of the right axilla with 1×10^6 M109 cells (tumor volume range at t0=between 60 and 80 mm^3), mice (5/group) were injected i.v. three times a week (TIW), for a defined length of time (e.g., 2-3 weeks) with (a) a defined dose level on a per kilogram body weight basis of a drug delivery conjugate described herein, or (b) an equivalent dose volume of PBS (control). Tumor growth was measured using calipers at 2-day or 3-day intervals in each treatment group. Tumor volumes were calculated using the equation V=a×b^2/2, where “a” is the length of the tumor and “b” is the width expressed in millimeters.

[4] = system: Folate receptor-negative 4T-1 tumor cells; assay: 4T-1 Tumor Volume Assay; assay type: in vivo, Balb/c mice; conditions: 3 μmol/kg TIW for 3 weeks
Source text: 4T-1 Tumor Volume Assay. Six to seven week-old mice (female Balb/c strain) were obtained from Harlan, Inc., Indianapolis, Ind. The mice were maintained on Harlan's folate-free chow for a total of three weeks prior to the onset of and during this experiment. Folate receptor-negative 4T-1 tumor cells (1×10^6 cells per animal) were inoculated in the subcutis of the right axilla. Approximately 5 days post tumor inoculation when the 4T-1 tumor average volume was ˜100 mm^3, mice (5/group) were injected i.v. three times a week (TIW), for 3 weeks with 3 μmol/kg of drug delivery conjugate or with an equivalent dose volume of PBS (control). Tumor growth was measured using calipers at 2-day or 3-day intervals in each treatment group. Tumor volumes were calculated using the equation V=a×b^2/2, where “a” is the length of the tumor and “b” is the width expressed in millimeters.

[5] = Animal Weight Determination
Protocol: Animal Weight Determination. The percentage weight change of the mice was determined in mice (5 mice/group) on the indicated days post-tumor inoculation (PTI) as shown in the graph for the samples described in the related tumor volume assay.

CC[C@]1(O)C[C@H]2CN(CCc3c([nH]c4ccccc34)[C@@](C(=O)OC)(c3cc4c(cc3OC)N(C)[C@H]3[C@@](O)(C(=O)NN=CCOCCOCCN5C(=O)CC(SC[C@H](NC(=O)[C@H](CC(=O)O)NC(=O)[C@H](CC(=O)O)NC(=O)[C@H](CCCNC(=N)N)NC(=O)[C@H](CC(=O)O)NC(=O)CC[C@H](NC(=O)c6ccc(NCc7cnc8nc(N)[nH]c(=O)c8n7)cc6)C(=O)O)C(=O)O)C5=O)[C@H](O)[C@]5(CC)C=CCN6CC[C@]43[C@@H]65)C2)C1 (some centres unmarked) [Example 6]
relative binding affinity versus folic acid at folic acid receptors ([1]; figure legends, folic acid = 1.0, 1 hour at 37° C): 0.35
Relative Folate Receptor Affinity ([1]; summary table): 0.31
IC50 ([2]; KB cells, without excess folic acid, read-out: IC50, 3H-thymidine incorporation in KB cells): 14 nM
Folate Receptor Competition ([2]; summary table): Yes
competition by excess folic acid of effect on 3H-thymidine incorporation ([2]; with versus without at least 100-fold excess of folic acid): folate competes
growth of M109 tumors ([3]; 1.5 μmol/kg TIW): inhibits the growth of solid tumors
growth of M109 tumors ([3]; 3 μmol/kg TIW for 3 weeks): inhibits the growth of solid M109 tumors
growth of M109 tumors ([3]; 10 μmol/kg TIW for 3 weeks): inhibits the growth of solid tumors
growth of FR-negative 4T-1 tumors [4]: not folate receptor (FR)-negative tumors; also recorded: absence of activity
weight of nu/nu mice ([5]; 5 μmol/kg for 3 weeks (FIG. 16B)): absence of an effect
weight of nu/nu mice ([5]; 10 μmol/kg TIW for 3 weeks (FIG. 5B)): does not affect the weight of the mice; also recorded: absence of an effect
weight of mice ([5]; 10 μmol/kg TIW for 3 weeks (FIG. 7B)): absence of an effect
weight of Balb/c mice ([5]; 10 μmol/kg for 3 weeks (FIG. 14B)): absence of an effect
weight of nu/nu mice ([5]; 1, 5, and 10 μmol/kg TIW for 3 weeks (FIG. 6B)): little effect on the weight of the mice; also recorded: absence of an effect
